Experimental data from patent publication US20100035802A1, “PARTICULAR SHORT-CHAIN PEPTIDE CANCER DRUG AND ITS TREATMENT” (priority 2007, published 2010).

Experiments:
[1] = tested on: cancer cells; experiment: animal experiments: growth of cancer cells added with the short-chain peptide; type: in vivo; details: after having been added with the short-chain peptide for a certain period of time
Text: (§1) In Attachment, Photos 1˜3 show the cell cycles of liver cancer cells respectively added and not added with the particular short-chain peptide in cell experiments. Photos 4 and 5 show the growth of cancer cells respectively added and not added with the particular short-chain peptide in animal experiments.

[2] = tested on: liver cancer cells; experiment: cell experiments: survival and death rate of cancer cells added with the short-chain peptide; type: cell-based
Text: The percent of normal cancer cells 1 is equal to the number of normal cancer cells divided by the summation of the number of normal cancer cells, the number of interphase cancer cells and the number of mitotic phase cancer cells. The percent of interphase cancer cells 2 is equal to the number of interphase cancer cells divided by the summation of the number of normal cancer cells, the number of interphase cancer cells and the number of mitotic phase cancer cells. The percent of mitotic phase cancer cells 3 is equal to the number of mitotic phase cancer cells divided by the summation of the number of normal cancer cells, the number of interphase cancer cells and the number of mitotic phase cancer cells. The percent of dead cancer cells 4 is equal to the number of dead cancer cells divided by the summation of the number of normal cancer cells, the number of interphase cancer cells, the number of mitotic phase cancer cells and the number of dead cancer cells.
In cell experiments, the survival rate of cancer cells added with none of the short-chain peptide is as high as 95%. Apoptosis of cancer cells begins as soon as the short-chain peptide is added to cancer cells; it's obviously found out that after 24 hours, the survival rate of cancer cells is lowered to about 25% and the death rate is raised to about 70%, 35 to 40 times of normal death rate.
as §1

Substance: RGDLASLQKAAHGHVRKAFKSHVSTLTDLQPYMRQFVAHLQETSPLRD (RGDLASLQKAAHGHVRKAFKSHVSTLTDLQPYMRQFVAHLQETSPLRD) [short-chain peptide, unique short-chained peptide composed of 48 amino acids]
- death of cancer cells in animal experiments (Photo 5) [1]: die massively via apoptosis
- effect on cell cleavage of cancer cells ([2]; cancer cells added with the short-chain peptide): stagnating on the stage of cell cleavage for being further induced to apoptosis to death
- death rate of cancer cells ([2]; cell experiments, after 24 hours with the short-chain peptide): about 70%
- survival rate of cancer cells ([2]; cell experiments, after 24 hours with the short-chain peptide (without peptide 95%)): about 25%
- death rate of the liver cancer cells ([2]; liver cancer cells, after 24-hour culture, repeated experiments): about 70%
